Source: patent publication US20230146395A1, “Substituted Pyrimidines and Uses Thereof” (Verge Analytics, Inc., priority 2020, published 2023)
pEC50, pIC50: −log10 of the molar value.

Experiments:
[1] = molecular target: T1, Full length human recombinant PIKFYVE (Homo sapiens, UniProt Q9Y2I7); assay: Inhibition of PIKfyve (microfluidic electrophoresis kinase assay, PI3P/PS substrate); format: biochemical; conditions: 12 concentrations
T1 construct: Full length human recombinant PIKFYVE; purchased Carna Biosciences (Kobe, Japan); host or cells: baculovirus expression system
Summary of the method: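 GST-tagged full-length human PIKFYVE (baculovirus; 2 nM) with fluorescent PI3P/PS (1 μM PI3P) and […] in pH 7.5 HEPES with Mg2+/Mn2+, 1% DMSO, 3 h at room temperature. PI(3,5)P product/substrate ratio read by microfluidic electrophoresis; 12-point % inhibition versus no-enzyme and DMSO controls.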

[2] = system: HEK 293T transfected with plasmids containing TDP-43 Q331K mutation; assay: HEK/TDP Survival assay (Cell-Titer-Glo, 48 hrs, maximal effect of rescue); format: cell-based; conditions: Homo sapiens, HEK 293T with TDP-43 Q331K, (n) in brackets
Protocol: HEK/TDP Survival assay: Immortalized human embryonic kidney 293T (HEK 293T) were transfected with plasmids containing TDP-43 Q331K mutation, resulting in an increase in cell death that is biologically relevant to ALS patients. Cell death is measured as reductions in the amount of ATP, an indicator of metabolically active cells, that is quantified by a luminescence Cell-Titer-Glo® (CTG) reagent. Compounds are evaluated in this model for changes in CTG compared to a no treatment group. Increased signal indicates improved survival (rescue) and decreased signal indicates decreased survival.
Cell rescue was measured in a 96-well format with eight different concentrations of the test compound over 48 hours (hrs) with 6 replicates. The Promega Cell-Titer-Glo® Luminescent Cell Viability Assay was used to quantify ATP, an indicator of metabolically active cells (see protocol: https://www.promega.com/-/media/files/resources/protocols/technical-manuals/101/celltiterglo-2-0-assay-protocol.pdf?la=en). The luminescence signal was detected using the PerkinElmer EnVision or Molecular Devices SpectraMax.
The effect of a compound at a given dose on cell viability was determined using a three step procedure. First, Hedge's g for the Cell Titer-Glo luminescence values using six untreated wells on every plate as a control was calculated. […] Finally, values from all compound-dose pairs were corrected for multiple hypothesis testing using the Empirical Bayes framework of Stephens, M. (False discovery rates: a new deal, Biostatistics, 18 [2], 2017, 275-294) yielding credible intervals for the measured effect and associated s values.
Briefly, this method computes a local false sign rate for each experiment. Analogous to the local false discovery rate of Efron, B. (Size, power and false discovery rates, Ann. Statist. 35 [4], 2007, 1351-1377) this value measures the confidence in the sign of each effect (rather than confidence in each effect being non-zero). The s values reported in the previous figures are the expected fraction of errors if estimating the sign of all effects with greater absolute local false sign rate, defined in analogy to the q value of Storey, JD (The positive false discovery rate: a Bayesian interpretation and the q-value, Ann. Statist. 31 [6] 2003, 2013-2035).
Drugs that yielded signed log s values greater than 3 were considered hits. This threshold was determined by a separate calibration experiment in which Cell Titer-Glo® was measured in blank plates consisting of untreated cells to assess the noise inherent in the assay. Data are presented as the maximal effect of rescue obtained from the dose-response curve.

[3] = system: ALS patient (SOD1 A4V) iPSC derived motor neurons; assay: iPSC MN Survival assay (GFP imaging, six days, hazard ratio from Cox regression); format: cell-based; conditions: Homo sapiens, survival rescue, read-out: C9 iPSC MN Significant survival rescue EC50

T1 sequence (Q9Y2I7 whole entry): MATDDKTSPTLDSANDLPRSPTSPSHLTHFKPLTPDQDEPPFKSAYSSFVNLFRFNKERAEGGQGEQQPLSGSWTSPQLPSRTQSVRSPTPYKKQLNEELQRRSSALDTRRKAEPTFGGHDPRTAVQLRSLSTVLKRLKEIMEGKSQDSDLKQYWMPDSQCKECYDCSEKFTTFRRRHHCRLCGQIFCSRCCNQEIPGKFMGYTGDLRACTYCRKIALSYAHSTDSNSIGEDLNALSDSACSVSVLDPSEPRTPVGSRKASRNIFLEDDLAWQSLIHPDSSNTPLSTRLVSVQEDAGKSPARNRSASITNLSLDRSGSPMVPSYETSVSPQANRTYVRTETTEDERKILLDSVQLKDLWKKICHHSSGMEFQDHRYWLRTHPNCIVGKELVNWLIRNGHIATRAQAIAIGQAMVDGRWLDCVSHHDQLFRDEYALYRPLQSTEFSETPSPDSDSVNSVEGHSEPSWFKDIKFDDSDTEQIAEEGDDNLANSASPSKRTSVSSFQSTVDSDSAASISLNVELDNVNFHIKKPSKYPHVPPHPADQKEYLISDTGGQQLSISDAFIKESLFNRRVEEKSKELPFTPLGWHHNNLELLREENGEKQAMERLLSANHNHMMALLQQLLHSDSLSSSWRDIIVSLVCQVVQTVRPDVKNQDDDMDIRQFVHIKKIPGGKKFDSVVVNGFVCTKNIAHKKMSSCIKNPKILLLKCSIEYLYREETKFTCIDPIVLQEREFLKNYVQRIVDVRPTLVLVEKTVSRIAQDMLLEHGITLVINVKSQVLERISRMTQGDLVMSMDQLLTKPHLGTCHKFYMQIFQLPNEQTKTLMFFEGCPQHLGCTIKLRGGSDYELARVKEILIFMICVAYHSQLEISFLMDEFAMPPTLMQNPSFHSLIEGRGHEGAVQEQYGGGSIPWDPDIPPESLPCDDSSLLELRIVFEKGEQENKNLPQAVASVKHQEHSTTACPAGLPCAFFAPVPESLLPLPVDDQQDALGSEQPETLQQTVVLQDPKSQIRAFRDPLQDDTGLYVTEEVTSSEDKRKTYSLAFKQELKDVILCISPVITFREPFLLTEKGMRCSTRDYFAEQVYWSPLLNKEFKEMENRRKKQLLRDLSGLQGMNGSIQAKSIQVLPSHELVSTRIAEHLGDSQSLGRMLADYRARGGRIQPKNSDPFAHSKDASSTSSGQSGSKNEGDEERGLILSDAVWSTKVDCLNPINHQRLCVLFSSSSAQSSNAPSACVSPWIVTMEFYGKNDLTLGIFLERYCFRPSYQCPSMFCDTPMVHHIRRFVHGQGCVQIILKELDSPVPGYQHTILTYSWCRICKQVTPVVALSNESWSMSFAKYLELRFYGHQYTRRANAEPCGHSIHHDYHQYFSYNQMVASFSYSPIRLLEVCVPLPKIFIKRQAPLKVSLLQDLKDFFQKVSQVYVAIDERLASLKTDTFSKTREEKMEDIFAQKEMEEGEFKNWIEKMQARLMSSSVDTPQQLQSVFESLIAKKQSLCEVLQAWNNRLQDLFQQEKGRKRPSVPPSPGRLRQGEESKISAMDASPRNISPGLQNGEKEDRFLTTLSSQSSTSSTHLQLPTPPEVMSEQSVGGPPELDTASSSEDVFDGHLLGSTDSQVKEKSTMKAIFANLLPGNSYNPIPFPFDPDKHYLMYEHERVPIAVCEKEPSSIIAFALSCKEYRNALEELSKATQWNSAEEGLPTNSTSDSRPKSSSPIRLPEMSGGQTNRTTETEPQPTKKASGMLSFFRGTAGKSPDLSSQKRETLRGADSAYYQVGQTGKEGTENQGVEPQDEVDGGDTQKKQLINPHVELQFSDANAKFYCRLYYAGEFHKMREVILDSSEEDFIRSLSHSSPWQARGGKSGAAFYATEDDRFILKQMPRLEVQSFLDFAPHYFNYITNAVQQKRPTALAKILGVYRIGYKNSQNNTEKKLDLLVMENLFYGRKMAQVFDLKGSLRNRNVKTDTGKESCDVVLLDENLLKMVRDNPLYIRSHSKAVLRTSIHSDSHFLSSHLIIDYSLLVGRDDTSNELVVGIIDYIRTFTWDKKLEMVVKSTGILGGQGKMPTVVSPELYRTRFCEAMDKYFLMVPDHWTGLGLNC

| pIC50 [1] | Structure (SMILES) | EC50 [2] [nM] | pEC50 [3] |
| --- | --- | --- | --- |
| 9.10 | Cc1cccc(-c2cc(Nc3nc(N4CCOCC4)c4oc(-c5ccncc5)cc4n3)[nH]n2)c1 [Compound 3, 4-morpholino-N-[5-(m-tolyl)-1H-pyrazol-3-yl]-6-(4-pyridyl)furo[3,2-d]pyrimidin-2-amine, hydrogen chloride] | 16 | 5.52 |
| 8.70 | CCNC(=O)c1cc2nc(Nc3cc(-c4ccccc4)[nH]n3)nc(N3CCOCC3)c2o1 [Compound 56, N-ethyl-4 morpholino-2-[(5-phenyl-1H-pyrazol-3-yl)amino]furo[3,2-d]pyrimidine-6-carboxamide, hydrogen chloride] | 15 | 6.00 |
| 8.41 | Cc1cccc(-c2ccn(-c3nc(N4CCOCC4)c4oc(-c5ccccn5)cc4n3)n2)c1 [Compound 91, 4-morpholino-6-(pyridin-2-yl)-2-(3-(m-tolyl)-1H-pyrazol-1-yl)furo[3,2-d]pyrimidine] | 24.5 | 6.00 |
| 8.54 | CCNC(=O)c1cc2nc(-n3cc(-c4cccc(C)c4)cn3)nc(N3CCOCC3)c2o1 [Compound 101, N-ethyl-4-morpholino-2-(4-(m-tolyl)-1H-pyrazol-1-yl)furo[3,2-d]pyrimidine-6-carboxamide] |  | 6.00 |
| 7.95 | Cc1cccc(-c2cnn(-c3nc(N4CCOCC4)c4oc(-c5ccccn5)cc4n3)c2)c1 [Compound 103, 4-morpholino-6-(pyridin-2-yl)-2-(4-(m-tolyl)-1H-pyrazol-1-yl)fur[3,2-d]pyrimidine] |  | 6.00 |
| < 5.00 | Cc1cccc(-c2ccn(-c3nc(N4CCOCC4)c4oc(-c5ccccn5)c(C(F)(F)F)c4n3)n2)c1 [Compound 112, 4-morpholino-6-(pyridin-2-yl)-2-(3-(m-tolyl)-1H-pyrazol-1-yl)-7-(trifluoromethyl) furo[3,2-d]pyrimidine] | 153 |  |
| 9.70 | Cc1cccc(-c2cnn(-c3nc(N4CCOCC4)c4oc(C(=O)N[C@@H](C)C5CC5)cc4n3)c2)c1 [Compound 113, (S)-N-(1-cyclopropylethyl)-4-morpholino-2-(4-(m-tolyl)-1H-pyrazol-1-yl)furo[3,2-d]pyrimidine-6-carboxamide] | 16 |  |
| 8.02 | C[C@H](NC(=O)c1cc2nc(-n3cc(-c4ccccc4)cn3)nc(N3CCOCC3)c2o1)C1CC1 [Compound 114, (S)-N-(1-cyclopropylethyl)-4-morpholino-2-(4-phenyl-1H-pyrazol-1-yl)furo[3,2-d]pyrimidine-6-carboxamide] | 61 |  |
| 8.51 | Cc1cccc(-c2cnn(-c3nc(N4CCOCC4)c4oc(C(=O)NCC5CC5)cc4n3)c2)c1 [Compound 115, N-(cyclopropylmethyl)-4-morpholino-2-(4-(m-tolyl)-1H-pyrazol-1-yl)furo[3,2-d]pyrimidine-6-carboxamide] | 35.7 |  |
| 7.43 | COCCNC(=O)c1cc2nc(-n3cc(-c4cccc(C)c4)cn3)nc(N3CCOCC3)c2o1 [Compound 117, N-(2-methoxyethyl)-4-morpholino-2-(4-(m-tolyl)-1H-pyrazol-1-yl)fur[3,2-d]pyrimidine-6-carboxamide] | 74.3 |  |
| 8.09 | Cc1cccc(-c2cnn(-c3nc(N4CCOCC4)c4oc(C(=O)NCCCS(C)(=O)=O)cc4n3)c2)c1 [Compound 119, N-(3-(methylsulfonyl)propyl)-4-morpholino-2-(4-(m-tolyl)-1H-pyrazol-1-yl)furo[3,2-d]pyrimidine-6-carboxamide] | 96.5 |  |
| 7.79 | Cc1cccc(-c2cnn(-c3nc(N4CCOCC4)c4oc(C(=O)NCCCS(=O)(=O)N(C)C)cc4n3)c2)c1 [Compound 120, N-(3-(N,N-dimethylsulfamoyl)propyl)-4-morpholino-2-(4-(m-tolyl)-1H-pyrazol-1-yl)furo[3,2-d]pyrimidine-6-carboxamide] | 121 |  |
| 8.92 | Cc1cccc(-c2cnn(-c3nc(N4CCOCC4)c4oc(C(=O)NC5CCN(C)CC5)cc4n3)c2)c1 [Compound 121, N-(1-methylpiperidin-4-yl)-4-morpholino-2-(4-(m-tolyl)-1H-pyrazol-1-yl)furo[3,2-d]pyrimidine-6-carboxamide] | 21.5 |  |
| 8.48 | Cc1cccc(-c2cnn(-c3nc(N4CCOCC4)c4oc(C(=O)NC5CCCN(C)C5)cc4n3)c2)c1 (stereo not drawn) [Compound 123, N-(1-methylpiperidin-3-yl)-4-morpholino-2-(4-(m-tolyl)-1H-pyrazol-1-yl)furo[3,2-d]pyrimidine-6-carboxamide] | 28.5 |  |
| 8.33 | Cc1cccc(-c2cnn(-c3nc(N4CCOCC4)c4oc(C(=O)NC5CCN(C)C5)cc4n3)c2)c1 (stereo not drawn) [Compound 124, N-(1-methylpyrrolidin-3-yl)-4-morpholino-2-(4-(m-tolyl)-1H-pyrazol-1-yl)furo[3,2-d]pyrimidine-6-carboxamide] | 48 |  |
| 9.05 | Cc1cccc(-c2cnn(-c3nc(N4CCOCC4)c4oc(C(=O)NC5CCOCC5)cc4n3)c2)c1 [Compound 125, 4-morpholino-N-(tetrahydro-2H-pyran-4-yl)-2-(4-(m-tolyl)-1H-pyrazol-1-yl)furo[3,2-d]pyrimidine-6-carboxamide] | 26 |  |
| 8.54 | Cc1cccc(-c2cnn(-c3nc(N4CCOCC4)c4oc(C(=O)NC5CCOC5)cc4n3)c2)c1 (stereo not drawn) [Compound 126, 4-morpholino-N-(tetrahydrofuran-3-yl)-2-(4-(m-tolyl)-1H-pyrazol-1-yl)furo[3,2-d]pyrimidine-6-carboxamide] | 30.5 |  |
| 7.47 | Cc1cccc(-c2cnn(-c3nc(N4CCOCC4)c4oc(C(=O)NC5CC5)c(C)c4n3)c2)c1 [Compound 127, N-cyclopropyl-7-methyl-4-morpholino-2-(4-(m-tolyl)-1H-pyrazol-1-yl)furo[3,2-d]pyrimidine-6-carboxamide] | 48 |  |
| 7.93 | Cc1cccc(-c2cnn(-c3nc(N4CCOCC4)c4oc(C(=O)NC5CCCN(C)CC5)cc4n3)c2)c1 (stereo not drawn) [Compound 129, N-(1-methylazepan-4-yl)-4-morpholino-2-(4-(m-tolyl)-1H-pyrazol-1-yl)furo[3,2-d]pyrimidine-6-carboxamide] | 9 |  |
| 7.74 | [2H]C1([2H])OC([2H])([2H])C([2H])([2H])N(c2nc(-n3cc(-c4cccc(C)c4)cn3)nc3cc(C(=O)NCC)oc23)C1([2H])[2H] [Compound 131, N-ethyl-4-morpholino(dg)-2-(4-(m-tolyl)-1H-pyrazol-1-yl)furo[3,2-d]pyrimidine-6-carboxamide] | 17 |  |
| 7.40 | [2H]C1([2H])OC([2H])([2H])C([2H])([2H])N(c2nc(-n3cc(-c4cccc(C)c4)cn3)nc3cc(-c4cccnc4)oc23)C1([2H])[2H] [Compound 132, 4-morpholino (dg)-6-(pyridin-3-yl)-2-(4-(m-tolyl)-1H-pyrazol-1-yl)furo[3,2-d]pyrimidine] | 15 |  |
| 9.52 | Cc1cccc(-c2cnn(-c3nc(N4CCOCC4)c4oc(-c5cc(C)n[nH]5)cc4n3)c2)c1 [Compound 144, 6-(3-methyl-1H-pyrazol-5-yl)-4-morpholino-2-(4-(m-tolyl)-1H-pyrazol-1-yl)furo[3,2-d]pyrimidine] | 13 |  |
| 7.73 | Cc1cccc(-c2cnn(-c3nc(N4CCOCC4)c4oc(-c5cc(C)nn5CCN(C)C)cc4n3)c2)c1 [Compound 145, N,N-dimethyl-2-[3-methyl-5-[4-morpholino-2-[4-(m-tolyl)pyrazol-1-yl]furo[3,2-d]pyrimidin-6-yl]pyrazol-1-yl]ethanamine] | 27 |  |
| 9.52 | Cc1cccc(-c2cnn(-c3nc(N4CCOCC4)c4oc(-c5cc(C)n(CCN(C)C)n5)cc4n3)c2)c1 [Compound 146, N,N-dimethyl-2-(5-methyl-3-(4-morpholino-2-(4-(m-tolyl)-1H-pyrazol-1-yl)furo[3,2-d]pyrimidin-6-yl)-1H-pyrazol-1-yl)ethanamine] | 11 |  |
